{"source": "patent USRE30241E", "about": "“Esters of 3-(hydroxy or hydroxymethyl)-4-hydroxyphenyl aminomethyl ketones” (Sterling Drug Inc., priority 1970, dated 1980)", "key": {"[1]": {"tested_on": "carbachol- or histamine-induced bronchoconstriction", "experiment": "Bronchodilator Test Method I, anesthetized dog, intravenous activity", "format": "in vivo", "conditions": "Canis lupus familiaris, read-out: Bronchodilatation; for inhibition in vivo at 0.005 mg/kg: 5 mcg/kg i.v.; for inhibition in vivo at 0.02 mg/kg: 20 mcg/kg i.v.; for inhibition in vivo at 0.08 mg/kg: 80 mcg/kg i.v.; for inhibition in vivo at 0.00025 mg/kg: 0.25 mcg/kg i.v.; for inhibition in vivo at 0.001 mg/kg: 1 mcg/kg i.v.; for inhibition in vivo at 0.004 mg/kg: 4 mcg/kg i.v.; for inhibition in vivo at 0.025 mg/kg: 25 mcg/kg i.v.; for inhibition in vivo at 0.1 mg/kg: 100 mcg/kg i.v.", "outline": "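Pentobarbital-anesthetized (30 mg/kg i.v.), open-chest, artificially ventilated dogs were given i.v. carbachol (4-6 µg/kg) or histamine diphosphate (35-45 µg/kg). Test compound was given i.v. mixed with, after, or 1-10 min before the constrictor.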"}, "heart rate": {"tested_on": "heart rate", "experiment": "Cardiovascular studies: effect on the heart rate in the anesthetized dog", "format": "in vivo", "method": "The effect of a rapid intravenous injection on the heart rate the heart rate was conducted in anesthetized dogs under normal respiration. A few open-chest dogs were also tested. Increase in heart rate was measured by using an electrocardiograph attached to the dog. Readings were taken every 0.5-1 minute for the first 10 minutes and every 2-5 minutes thereafter until recovery. In some cases, several doses and more than one compound were tested alternately in the same dog. The blood pressure effect was simultaneously recorded."}, "[2]": {"tested_on": "carbachol- or histamine-induced bronchoconstriction", "experiment": "Bronchodilator Test Method I, anesthetized dog, intraduodenal activity", "format": "in vivo", "conditions": "Canis lupus familiaris, read-out: Bronchodilation; for inhibition in vivo at 0.025 mg/kg: 25 mcg/kg (salt) intraduodenal; for inhibition in vivo at 0.05 mg/kg: 50 mcg/kg (salt) intraduodenal", "outline": "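Pentobarbital-anesthetized (30 mg/kg i.v.) open-chest dogs of 9-18 kg, artificially ventilated; airway pressure recorded via tracheal cannula transducer. Test solution injected intraduodenally; from 5 min, i.v. carbachol (4-6 μg/kg) or histamine diphosphate (35-45 μg/kg) challenges every 30-60 min gauged degree and duration of bronchodilation.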"}, "[3]": {"tested_on": "guinea pig bronchioles constricted by carbachol", "experiment": "Bronchodilator Test Method II, in vitro perfused guinea pig lung", "method": "In this method bronchodilator activity in vitro was determined by testing the effect of graded doses of the test compounds on guinea pig bronchioles constricted by carbachol, using the technique reported by Sollman and von Oettingen, Proc. Soc, Exp. Biol. Med., 25,692 (1928) as modified by Tainter, Pedden, and James, J. Pharm. Exp. Ther., 51, 371 (1934) and by Luduena, von Euler, Tullar, and Lands, Arch. intern. Pharmacol., III, 392 (1957)."}}, "note": "Read-outs that look alike come from different tables or passages of the source.", "data": [{"smiles": "CC(C)(C)NCC(O)c1ccc(OC(=O)C(C)(C)C)c(COC(=O)C(C)(C)C)c1", "note": "(stereo not drawn) [Example 135, 3-(pivalyloxymethyl)-4-(pivaloxy)-alpha-(tert-butylaminomethyl)benzyl alcohol methanesulfonate]", "values": [{"measurement": "inhibition in vivo at 0.005 mg/kg", "setting": "[1]; 5 min, 5 min", "value": 18, "unit": "%"}, {"measurement": "inhibition in vivo at 0.02 mg/kg", "setting": "[1]; 5 min, 5 min", "value": 30, "unit": "%"}, {"measurement": "inhibition in vivo at 0.08 mg/kg", "setting": "[1]; 5 min, 5 min", "value": 38, "unit": "%"}, {"measurement": "inhibition in vivo at 0.005 mg/kg", "setting": "[1]; 0.5 h, 30 min", "value": 32, "unit": "%"}, {"measurement": "inhibition in vivo at 0.02 mg/kg", "setting": "[1]; 0.5 h, 30 min", "value": 49, "unit": "%"}, {"measurement": "inhibition in vivo at 0.08 mg/kg", "setting": "[1]; 0.5 h, 30 min", "value": 64, "unit": "%"}, {"measurement": "inhibition in vivo at 0.005 mg/kg", "setting": "[1]; 1 h, 60 min", "value": 36, "unit": "%"}, {"measurement": "inhibition in vivo at 0.02 mg/kg", "setting": "[1]; 1 h, 60 min", "value": 50, "unit": "%"}, {"measurement": "inhibition in vivo at 0.08 mg/kg", "setting": "[1]; 1 h, 60 min", "value": 62, "unit": "%"}, {"measurement": "inhibition in vivo at 0.005 mg/kg", "setting": "[1]; 2 h, 120 min", "value": 26, "unit": "%"}, {"measurement": "inhibition in vivo at 0.02 mg/kg", "setting": "[1]; 2 h, 120 min", "value": 56, "unit": "%"}, {"measurement": "inhibition in vivo at 0.08 mg/kg", "setting": "[1]; 2 h, 120 min", "value": 66, "unit": "%"}, {"measurement": "inhibition in vivo at 0.02 mg/kg", "setting": "[1]; 3 h, 180 min", "value": 50, "unit": "%"}, {"measurement": "inhibition in vivo at 0.08 mg/kg", "setting": "[1]; 3 h, 180 min", "value": 62, "unit": "%"}, {"measurement": "inhibition in vivo at 0.02 mg/kg", "setting": "[1]; 4 h, 240 min", "value": 45, "unit": "%"}, {"measurement": "inhibition in vivo at 0.08 mg/kg", "setting": "[1]; 4 h, 240 min", "value": 56, "unit": "%"}, {"measurement": "inhibition in vivo at 0.02 mg/kg", "setting": "[1]; 5 h, 300 min", "value": 36, "unit": "%"}, {"measurement": "inhibition in vivo at 0.08 mg/kg", "setting": "[1]; 5 h, 300 min", "value": 49, "unit": "%"}, {"measurement": "Mean Maximal Increase in the Heart Rate", "setting": "heart rate; 0.25 mcg/kg (salt) i.v.", "value": 5, "unit": "Beats/Minute"}, {"measurement": "Mean Maximal Increase in the Heart Rate", "setting": "heart rate; 1 mcg/kg (salt) i.v.", "value": 10, "unit": "Beats/Minute"}, {"measurement": "Mean Maximal Increase in the Heart Rate", "setting": "heart rate; 8 mcg/kg (salt) i.v.", "value": 17, "unit": "Beats/Minute"}, {"measurement": "inhibition in vivo at 0.025 mg/kg", "setting": "[2]; 5 min, 5 min", "value": 18, "unit": "%"}, {"measurement": "inhibition in vivo at 0.05 mg/kg", "setting": "[2]; 5 min, 5 min", "value": 31, "unit": "%"}, {"measurement": "inhibition in vivo at 0.05 mg/kg", "setting": "[2]; 0.5 h, 30 min", "value": 56, "unit": "%"}, {"measurement": "inhibition in vivo at 0.025 mg/kg", "setting": "[2]; 1 h, 60 min", "value": 56, "unit": "%"}, {"measurement": "inhibition in vivo at 0.05 mg/kg", "setting": "[2]; 1 h, 60 min", "value": 74, "unit": "%"}, {"measurement": "inhibition in vivo at 0.025 mg/kg", "setting": "[2]; 2 h, 120 min", "value": 55, "unit": "%"}, {"measurement": "inhibition in vivo at 0.05 mg/kg", "setting": "[2]; 2 h, 120 min", "value": 73, "unit": "%"}, {"measurement": "inhibition in vivo at 0.025 mg/kg", "setting": "[2]; 3 h, 180 min", "value": 45, "unit": "%"}, {"measurement": "inhibition in vivo at 0.05 mg/kg", "setting": "[2]; 3 h, 180 min", "value": 64, "unit": "%"}, {"measurement": "inhibition in vivo at 0.025 mg/kg", "setting": "[2]; 4 h, 240 min", "value": 34, "unit": "%"}, {"measurement": "inhibition in vivo at 0.05 mg/kg", "setting": "[2]; 4 h, 240 min", "value": 51, "unit": "%"}, {"measurement": "inhibition in vivo at 0.025 mg/kg", "setting": "[2]; 5 h, 300 min", "value": 27, "unit": "%"}, {"measurement": "inhibition in vivo at 0.05 mg/kg", "setting": "[2]; 5 h, 300 min", "value": 37, "unit": "%"}, {"measurement": "inhibition in vivo at 0.05 mg/kg", "setting": "[2]; 6 h, after 6 hrs.", "value": 36, "unit": "%"}]}, {"smiles": "CC(C)(C)NCC(O)c1ccc(O)c(CO)c1", "note": "(stereo not drawn) [Ref. Cpd. III, 3-Hydroxymethyl-4-hydroxy-alpha-(tert-butylaminomethyl)benzyl alcohol, reference compound]", "values": [{"measurement": "inhibition in vivo at 0.00025 mg/kg", "setting": "[1]; 5 min, 5 min", "value": 18, "unit": "%"}, {"measurement": "inhibition in vivo at 0.001 mg/kg", "setting": "[1]; 5 min, 5 min", "value": 31, "unit": "%"}, {"measurement": "inhibition in vivo at 0.004 mg/kg", "setting": "[1]; 5 min, 5 min", "value": 65, "unit": "%"}, {"measurement": "inhibition in vivo at 0.00025 mg/kg", "setting": "[1]; 0.5 h, 30 min", "value": 0, "unit": "%"}, {"measurement": "inhibition in vivo at 0.001 mg/kg", "setting": "[1]; 0.5 h, 30 min", "value": 14, "unit": "%"}, {"measurement": "inhibition in vivo at 0.004 mg/kg", "setting": "[1]; 0.5 h, 30 min", "value": 24, "unit": "%"}, {"measurement": "inhibition in vivo at 0.001 mg/kg", "setting": "[1]; 1 h, 60 min", "value": 3, "unit": "%"}, {"measurement": "inhibition in vivo at 0.004 mg/kg", "setting": "[1]; 1 h, 60 min", "value": 18, "unit": "%"}, {"measurement": "inhibition in vivo at 0.004 mg/kg", "setting": "[1]; 2 h, 120 min", "value": 0, "unit": "%"}, {"measurement": "Mean Maximal Increase in the Heart Rate", "setting": "heart rate; 0.25 mcg/kg (salt) i.v.", "value": 9, "unit": "Beats/Minute"}, {"measurement": "Mean Maximal Increase in the Heart Rate", "setting": "heart rate; 1 mcg/kg (salt) i.v.", "value": 15, "unit": "Beats/Minute"}, {"measurement": "Mean Maximal Increase in the Heart Rate", "setting": "heart rate; 4 mcg/kg (salt) i.v.", "value": 34, "unit": "Beats/Minute"}, {"measurement": "inhibition in vivo at 0.025 mg/kg", "setting": "[2]; 10 min, 10 min", "value": 45, "unit": "%"}, {"measurement": "inhibition in vivo at 0.05 mg/kg", "setting": "[2]; 10 min, 10 min", "value": 13, "unit": "%"}, {"measurement": "inhibition in vivo at 0.05 mg/kg", "setting": "[2]; 0.5 h, 30 min", "value": 42, "unit": "%"}, {"measurement": "inhibition in vivo at 0.025 mg/kg", "setting": "[2]; 1 h, 60 min", "value": 51, "unit": "%"}, {"measurement": "inhibition in vivo at 0.05 mg/kg", "setting": "[2]; 1 h, 60 min", "value": 56, "unit": "%"}, {"measurement": "inhibition in vivo at 0.025 mg/kg", "setting": "[2]; 2 h, 120 min", "value": 43, "unit": "%"}, {"measurement": "inhibition in vivo at 0.05 mg/kg", "setting": "[2]; 2 h, 120 min", "value": 71, "unit": "%"}, {"measurement": "inhibition in vivo at 0.025 mg/kg", "setting": "[2]; 3 h, 180 min", "value": 0, "unit": "%"}, {"measurement": "inhibition in vivo at 0.05 mg/kg", "setting": "[2]; 3 h, 180 min", "value": 53, "unit": "%"}, {"measurement": "inhibition in vivo at 0.05 mg/kg", "setting": "[2]; 4 h, 240 min", "value": 34, "unit": "%"}, {"measurement": "inhibition in vivo at 0.05 mg/kg", "setting": "[2]; 5 h, 300 min", "value": 6, "unit": "%"}]}, {"smiles": "Cc1cccc(C(=O)Oc2ccc(C(O)CNC(C)(C)C)cc2O)c1", "note": "(stereo not drawn) [Example 139, 3-hydroxy-4-(m-toluyloxy)-alpha-(tert-butylaminomethyl)benzyl alcohol methanesulfonate]", "values": [{"measurement": "ED50", "setting": "[3]; carbachol (Doryl) 1:5 million", "value": "2.64 µg (base)"}, {"measurement": "Duration, Mean", "setting": "[3]; dose 6 mcg (base)", "value": "29.8 ± 4.4", "unit": "min"}, {"measurement": "inhibition in vivo at 0.025 mg/kg", "setting": "[1]; 5 min, 5 min", "value": 81, "unit": "%"}, {"measurement": "inhibition in vivo at 0.1 mg/kg", "setting": "[1]; 5 min, 5 min", "value": 74, "unit": "%"}, {"measurement": "inhibition in vivo at 0.025 mg/kg", "setting": "[1]; 0.5 h, 30 min", "value": 22, "unit": "%"}, {"measurement": "inhibition in vivo at 0.1 mg/kg", "setting": "[1]; 0.5 h, 30 min", "value": 63, "unit": "%"}, {"measurement": "inhibition in vivo at 0.025 mg/kg", "setting": "[1]; 1 h, 60 min", "value": 24, "unit": "%"}, {"measurement": "inhibition in vivo at 0.1 mg/kg", "setting": "[1]; 1 h, 60 min", "value": 22, "unit": "%"}, {"measurement": "inhibition in vivo at 0.025 mg/kg", "setting": "[1]; 2 h, 120 min", "value": 0, "unit": "%"}, {"measurement": "inhibition in vivo at 0.1 mg/kg", "setting": "[1]; 2 h, 120 min", "value": 25, "unit": "%"}, {"measurement": "inhibition in vivo at 0.1 mg/kg", "setting": "[1]; 3 h, 180 min", "value": 9, "unit": "%"}, {"measurement": "inhibition in vivo at 0.1 mg/kg", "setting": "[1]; 5 h, 300 min", "value": 10, "unit": "%"}, {"measurement": "Mean Maximal Increase in the Heart Rate", "setting": "heart rate; 5 mcg/kg (salt) i.v.", "value": 6, "unit": "Beats/Minute"}, {"measurement": "Mean Maximal Increase in the Heart Rate", "setting": "heart rate; 25 mcg/kg (salt) i.v.", "value": 28, "unit": "Beats/Minute"}, {"measurement": "Mean Maximal Increase in the Heart Rate", "setting": "heart rate; 50 mcg/kg (salt) i.v.", "value": 35, "unit": "Beats/Minute"}]}]}
